Laboratory results as given in patent US5543521A, “Compounds that modulate endothelin activity” (Immunopharmaceutics, Inc., priority 1994, dated 1996).
Square brackets hold non-standard residues; d marks the D form. Ends that are not written are not given here. Peptide text beside a SMILES is read from it. d(aIle) = CC[C@H](C)[C@@H](N)C(=O)O

Assays:
[1] = biological target: T1, endothelin receptors (TE 671 cells) (Homo sapiens, UniProt P25101); experiment: Endothelin Binding Inhibition Binding Test #1: inhibition of 125I-ET-1 binding to TE 671 cell membranes; details: 125I-ET-1, TE 671 membranes, 4° C. for 16 hours, test compound 1 nM to 100 μM, triplicate
T1 construct: host or cells: TE 671 cells (membrane preparation)
T1 sequence (P25101 21-427): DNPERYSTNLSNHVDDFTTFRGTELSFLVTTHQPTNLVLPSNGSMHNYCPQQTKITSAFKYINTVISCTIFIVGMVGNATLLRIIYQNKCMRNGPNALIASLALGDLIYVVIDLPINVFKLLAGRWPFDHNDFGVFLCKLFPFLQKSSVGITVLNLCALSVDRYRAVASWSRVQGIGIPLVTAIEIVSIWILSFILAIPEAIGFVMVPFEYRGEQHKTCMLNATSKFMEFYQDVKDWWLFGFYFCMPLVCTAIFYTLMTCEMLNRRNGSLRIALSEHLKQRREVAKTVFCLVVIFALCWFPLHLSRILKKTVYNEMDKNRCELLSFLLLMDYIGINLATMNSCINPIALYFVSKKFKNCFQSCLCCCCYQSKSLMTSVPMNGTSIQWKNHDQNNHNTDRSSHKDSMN
Procedure: (§1) TE 671 cells (ATCC Accession No. HTB 139) were grown to confluence in T-175 flasks. Cells from multiple flasks were collected by scraping, pooled and centrifuged for 10 min at 190×g. The cells were resuspended in phosphate buffered saline (PBS) containing 10 mM EDTA using a Tenbroeck homogenizer. The suspension was centrifuged at 4° C. at 57,800×g for 15 min, the pellet was resuspended in 5 ml of buffer A (5 mM HEPES buffer, pH 7.4 containing aprotinin (100 KIU/ml)) and then frozen and thawed once. 5 ml of Buffer B (5 mM HEPES Buffer, pH 7.4 containing 10 mM MnCI2 and 0.001% deoxyribonuclease Type 1) was added, the suspension mixed by inversion and then incubated at 37° C. for 30 minutes. The mixture was centrifuged at 57,800×g as described above, the pellet washed twice with buffer A and then resuspended in buffer C (30 mM HEPES buffer, pH 7.4 containing aprotinin (100 KIU/ml) to give a final protein concentration of 2 mg/ml and stored at -70° C. until use.
The membrane suspension was diluted with binding buffer (30 mM HEPES buffer, pH 7.4 containing 150 mM NaCl, 5 mM MgCl2, 0.5% Bacitracin, 0.1% BSA) to a concentration of 6 μg/100 μl. […] The supernatant, containing unbound radioactivity, was decanted and the pellet counted on a Genesys multiwell gamma counter. The degree of inhibition of binding (D) was calculated according to the following equation: [formula] […]

[2] = test system: human ETB receptor; experiment: Endothelin Inhibition Binding Test #2: membranes of COS7 cells expressing the human ETB receptor; details: 125I-ET-1, COS7 membranes expressing human ETB receptor
Procedure: COS7 cells were transfected with DNA encoding the ETB receptor, The resulting cells, which express the human ETB receptor, were grown to confluence in T-150 flasks. Membrane was prepared as described above. The binding assay was performed as described above using the membrane preparation diluted with binding buffer to a concentration of 1 μg/100 μl.
as §1, with “The COS7 cells, described above, that had been transfected with DNA encoding the ETB receptor and express the human ETB receptor were” for “TE 671 cells (ATCC Accession No. HTB 139) were”, “10 min.” for “10 min”, “A (5mM” for “A (5 mM”, “mM MnCl2” for “mM MnCI2”, “2 mg/ml. […]” for “2 mg/ml and stored at -70° C. until use.”

[3] = biological target: cardiovascular receptors (aortic smooth muscle membrane); details: read-out: IC50, inhibition of 125 endothelin-1 binding; cited from earlier work
[4] = biological target: cardiovascular receptors (ventricle membranes); details: read-out: IC50, inhibition of 125 endothelin-1 binding; cited from earlier work
[5] = test system: cardiovascular receptors (cultured aortic smooth muscle cells); details: read-out: IC50, inhibition of 125 endothelin-1 binding; cited from earlier work
[6] = test system: endothelinB receptor; details: endothelinB receptor-rich tissues; cited from earlier work
[7] = test system: endothelin-1; details: cited from earlier work
[8] = test system: ETB receptors (non-cardiovascular tissues); details: kidney, adrenal gland, cerebellum; cited from earlier work
[9] = test system: vasoconstriction; details: cited from earlier work
[10] = test system: ETB receptors (cerebral tissue); details: cited from earlier work
[11] = test system: porcine pulmonary arteries; details: cited from earlier work
[12] = test system: isolated vascular strips; details: read-out: EC50, contractile agent; cited from earlier work
[13] = test system: ETA receptors (cardiovascular tissues); details: cited from earlier work

With O=C(O)C1CCC2C(=O)NC(Cc3c[nH]c4ccccc34)C(=O)N12 (stereo not shown) [3-(3-indolylmethyl)-1,4-diaza-2,5-dioxobicyclo[4.3.0]nonane-9-carboxylic acid] the IC50 [1] was 22500 nM and the “activity in the second binding inhibition assay” value [2] was “no detectable activity”.

For CC[C@H](C)[C@H]1NC(=O)[C@H](C)NC(=O)[C@@H](CCC(=O)O)NC(=O)[C@@H](Cc2c[nH]c3ccccc23)NC(=O)[C@H](CC(C)C)NC1=O [BE-18257B, c(D-Glu-L-Ala-allo-D-Ile-L-Leu-D-Trp)] (cyclo(A[d(aIle)]L[dW][dE])), the IC50 [3] is given as 1400 nM, the IC50 [4] is given as 800 nM and the IC50 [5] is given as 500 nM. The “concentration up to which it fails to inhibit binding” value [6] was greater than 100 µM.

In the case of CC(C)C[C@@H]1NC(=O)[C@@H](C(C)C)NC(=O)[C@@H]2CCCN2C(=O)[C@@H](CC(=O)O)NC(=O)[C@@H](Cc2c[nH]c3ccccc23)NC1=O [BQ-123, c(D-Asp-Pro-D-Val-Leu-D-Trp)] (cyclo(L[dW][dD]P[dV])), the “activity as endothelin-1 antagonists” value [7] is listed as “exhibit activity as endothelin-1 antagonists”.

In the case of “(Thr^2, Phe^4, Thr^5, Tyr^6, Lys^7, Tyr^14) endothelin-1 [endothelin-3]”, the “inhibition of 125 endothelin-1 binding” value [8] is listed as “inhibited to the same extent by endothelin-1 and endothelin-3” and the vasoconstriction potency order [9] is listed as “endothelin-2>endothelinol>endothelin-3”.

For “(Trp^6,Leu^7) endothelin-1 (CSCSSWLDKECVYFCHLDIIW; ends and bridges not checked; cysteine pairing not given here; UniProt P20800 49-69, looked up) [endothelin-2, endothelin isopeptide]”, the vasoconstriction potency order [9] is given as “endothelin-2>endothelinol>endothelin-3”.

In the case of “[Ala^1,3,11,15 ]endothelin-1: endothelin-1 analog in which the four cys residues are replaced with Ala (ASASSLMDKEAVYFAHLDIIW; Endothelin-1; UniProt P05305 53-73, looked up, variant C1A C3A C11A C15A)”, the “inhibition of 125 ET-1 binding” value [10] is listed as “inhibits ^125 ET-1 binding to cerebral tissue” and the “relaxation of pre-contracted arteries” value [11] is listed as “dose-dependent relaxation of pre-contracted porcine pulmonary arteries”.

In the case of “endothelin-1: potent twenty-one amino acid peptide vasoconstrictor”, the EC50 [12] is given as 0.4 nM, the “potency of inhibition of 125 endothelin-1 binding relative to endothelin-3” value [13] is given as 40-700 and the “inhibition of 125 endothelin-1 binding” value [8] is given as “inhibited to the same extent by endothelin-1 and endothelin-3”. The vasoconstriction potency order [9] was “endothelin-2>endothelinol>endothelin-3”.
